For data set [1], the system named is pyrethroid resistant female flies. It counts as in vivo.
Data set [2] is described as follows: Stability of organophosphates by differential scanning calorimetry (DSC). It counts as physicochemical. Conditions: for Onset of Decomposition: DSC; for decomposition points as determined by differential scanning calorimetry: below the 160° C. minimum temperatures encountered during extrusion or injection molding. The method, then: The insect control devices of the present invention containing the insecticide in the coating composition may be prepared at much lower temperatures, as low as about 20° C. The greatly-reduced processing temperatures allow the incorporation of active ingredients which are thermally unstable at elevated temperature. Examples of insecticides which may now be incorporated in such devices are dimethoate, dibrom, and chlorfenvinphos, illustrated in Table I. The decomposition points of these insecticides, as determined by differential scanning calorimetry (DSC), is below the 160° C. minimum temperatures encountered during extrusion or injection molding of plasticized PVC, and as such, these compounds can now be effectively incorporated in the present devices for control insect pests.

The test system of data set [3] is Resistant strain (flucythrinate resistant house flies). As to the kind of experiment: Chamber screening evaluation of ear tags, % fly mortality, resistant strain. It is filed as in vivo. To be noted: positive control, petri dish 0.05%, 8640 min. The method, then:
(§1) The ear tags are hung in a chamber covered with mesh cloth to keep the flies confined in the 12"×17"×9" space. Each chamber contains a cup of water and a supply of sugar and powdered milk.
(§2) At the start of the test, ~100 three to five day old house flies are placed in each chamber. The chambers are kept in a room with the temperature at 82° F. (27.8° C.). The flies are observed daily (except Saturday and Sunday) and mortality is recorded. At the termination of the study, the chambers are placed in a freezer overnight to kill the remaining flies, which are then counted. The percent mortality is calculated based on the number of flies that die during the observation period and the number of flies counted at the end of the study.

The test system of data set [4] is Non-resistant strain (house flies). Nature of the data set: Chamber screening evaluation of ear tags, % fly mortality, non-resistant strain. It counts as in vivo. Conditions: positive control, petri dish 0.05%, 8640 min. The method, then:
as §1, §2

Where [5] appears, read: pyrethroid resistant female flies.

We go through 15 compounds from US5104659A, “Compositions, devices and method for controlling insects” (priority 1984, dated 1992).

Read-outs that look alike come from different tables or passages of the source. A value given as a limit tells only on which side of the number the result lay.

As to `COP(=S)(OC)Oc1ccc([N+](=O)[O-])cc1Cl` [Dicapthon], the LD50 in data set [1] (setting [5]) is on record as 0.2649-0.6539 Micrograms/pyrethroid resistan.

On to `O=S1OCC2C(CO1)C1(Cl)C(Cl)=C(Cl)C2(Cl)C1(Cl)Cl` (centres unmarked) [Endosulfan], for which the LD50 in data set [1] (setting [5]) was 0.3518-0.5009 Micrograms/pyrethroid resistan.

As for `CNC(=O)ON=C(C)SC` [Methomyl], the LD50 in data set [1] (setting [5]) was 0.5027-0.6807 Micrograms/pyrethroid resistan.

For `CCOP(=S)(OCC)Oc1cc(C)nc(C(C)C)n1` [Diazinon], the LD50 in data set [1] (in vivo) is recorded as 4.0626-6.2101.

As to `COP(=O)(OC)O/C(=C\Cl)c1cc(Cl)c(Cl)cc1Cl` [Tetrachlorvinphos], the “Onset of Decomposition” value in data set [2] is 190 °C.

On to `CCCCOCCOCCOCc1cc2c(cc1CCC)OCO2` [Piperonyl butoxide], for which the LD50 in data set [1] (in vivo) is 2.725-3.7726.

`Cc1cc(Cl)ccc1N=CN(C)C` [Chlordimeform]: in data set [1] (setting [5]), the LD50 is given as > 8.0 Micrograms/pyrethroid resistan.

Turning to `CCOP(=S)(OCC)Oc1nc(Cl)c(Cl)cc1Cl` [Chlorpyrifos], the LD50 in data set [1] (setting [5]) is recorded as 0.3144-1.486 Micrograms/pyrethroid resistan.

For `COP(=O)(OC)OC(Br)C(Cl)(Cl)Br` (centres unmarked) [Dibrom, 1,2-Dibromo-2,2-dichloroethyl dimethyl phosphate], in data set [2], the “Onset of Decomposition” value was determined as 103 °C and the “decomposition points as determined by differential scanning calorimetry” value was less than 160 °C.

With `CNC(=O)CSP(=S)(OC)OC` [Dimethoate, O,O-dimethyl S-(N-methylcarbamoyl-methyl)phosphorodithioate], in data set [2], the “Onset of Decomposition” value turned out to be 105 °C and the “decomposition points as determined by differential scanning calorimetry” value is less than 160 °C.

For `CCOC(=O)CC(SP(=S)(OC)OC)C(=O)OCC` (centres unmarked) [Malathion], in data set [1] (setting [5]), the LD50 is on record as 4.4757-6.9321 Micrograms/pyrethroid resistan.

In the case of `COP(=S)(OC)Oc1ccc(S(=O)(=O)N(C)C)cc1` [Famphur], the LD50 in data set [1] (in vivo) is recorded as 0.1359-8.448.

`COP(=S)(OC)Oc1ccc(Sc2ccc(OP(=S)(OC)OC)cc2)cc1` [Temephos]: the “Onset of Decomposition” value in data set [2] was 142 °C.

For the compound `CC(C)[C@H](C(=O)OC(C#N)c1cccc(Oc2ccccc2)c1)c1ccc(OC(F)F)cc1` (mixture of isomers) [flucythrinate, (±)-cyano(3-phenoxyphenyl)methyl (+)-4-(difluoromethoxy-α-(1-methyl-ethyl)benzeneacetate], the “% Fly mortality - six days” value is listed as 4% in data set [3] and 77% in data set [4].

As to `CCOP(=O)(OCC)OC(=CCl)c1ccc(Cl)cc1Cl` [Chlorfenvinphos, 2-Chloro-1-(2,4-dichlorophenyl)-vinyl diethyl phosphate], in data set [2], the “Onset of Decomposition” value was 157 °C and the “decomposition points as determined by differential scanning calorimetry” value was less than 160 °C. Further, in data set [1] (setting [5]), the LD50 is recorded as 0.1869-0.2626 Micrograms/pyrethroid resistan.
